Laboratory results published in PubChem BioAssay (NCI).
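Following 48 hours of exposure in 96-well plates, responses at five concentrations were used to interpolate endpoints linearly. TGI denotes the concentration required for complete inhibition of growth.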

Key:
Experiment in all cases: NCI-60 cell line screen, 48 h
UACC-62 melanoma = test system: UACC-62 melanoma
A498 renal = test system: A498 renal
CCRF-CEM leukemia = test system: CCRF-CEM leukemia
UO-31 renal = test system: UO-31 renal
SK-MEL-5 melanoma = test system: SK-MEL-5 melanoma
SF-268 CNS = test system: SF-268 CNS
OVCAR-8 ovarian = test system: OVCAR-8 ovarian
SK-MEL-28 melanoma = test system: SK-MEL-28 melanoma
OVCAR-4 ovarian = test system: OVCAR-4 ovarian
SF-539 CNS = test system: SF-539 CNS

SMILES | TGI (UACC-62 melanoma) [µM] | TGI (A498 renal) [µM] | TGI (CCRF-CEM leukemia) [µM] | TGI (UO-31 renal) [µM] | TGI (SK-MEL-5 melanoma) [µM] | TGI (SF-268 CNS) [µM] | TGI (OVCAR-8 ovarian) [µM] | TGI (SK-MEL-28 melanoma) [µM] | TGI (OVCAR-4 ovarian) [µM] | TGI (SF-539 CNS) [µM]
COC(=O)[C@H]1ON2O[C@@H](O[C@H]3CCCC[C@@H]3C(C)(C)c3ccccc3)C[C@@H]3CC[C@H]1[C@@]32C | > 100 | > 100 | > 100 | > 100 | > 100 | > 100 | > 100 |  |  | 
C/C(=N/NC(=S)N(Cc1ccccn1)Cc1ccccn1)c1cnccn1 |  | > 100 | > 100 | 0.525 | > 37.9 | 14 |  | > 61.8 | 8.14 | 
O=C(c1ccc(Cl)cc1)N(C(=S)N1CCN(c2ccccc2)CC1)c1ccccc1 | > 100 |  | > 100 | > 100 | > 100 | > 100 | > 100 | > 100 | > 100 | > 100
COc1cc(/C=C/C(=O)O)ccc1O |  |  | > 100 | > 100 | > 100 | > 100 | > 100 | > 100 | > 100 | > 100
CCOC(=O)c1ccc(Nc2nc3ccc(C(F)(F)F)cc3nc2-c2ccccc2)cc1 | 74.5 |  | > 100 | > 100 | > 100 | > 100 | > 100 | > 100 |  | > 100
CCOC(=O)CC[C@@H](NC(=O)c1ccc(NCc2ccc3nc(OC)c(OC)nc3c2)cc1)C(=O)OCC | 32 |  | > 100 | > 65.4 | 27.9 | > 100 | > 100 | 22.8 | > 100 | 45.8
Cc1ccc(S(=O)(=O)OCC23CCC(C4CC42)C2CC23)cc1 (stereo unspecified) | > 100 | > 100 | > 100 | > 100 | > 100 | > 100 | > 100 | > 100 | > 100 | 
COc1ncc(C#CC(=O)c2ccccc2OC)c(OC)n1 | 7.49 | 35.2 | 1.58 | 2.97 | 5.85 | 12.2 | 5.05 | 8.06 | 20.7 | 
N#C[C@](CO)(NC(=O)OCc1ccccc1)C(F)F | > 100 | > 100 | > 100 | > 100 | > 100 | > 100 | > 100 | > 100 | > 100 | 
CCOP(=O)(OCC)C(Cc1ccccc1)N=C(c1ccccc1)c1ccccc1 (stereo unspecified) | 26.1 |  | 37.1 | 24.4 | 25.5 | 37.6 | 33.8 | 31.3 | 38.3 | 
Cn1c2c(c3ccccc31)CC(=O)N1CCCCC1C21OCCO1 (stereo unspecified) | > 100 | > 100 | > 100 | > 100 | > 100 | > 100 | > 100 | > 100 | > 100 | 
COc1ccccc1/C=C1/Sc2scc(CC(=O)Nc3ccccc3)[n+]2C1=O | 45.1 |  | 51.7 | 70.7 | 36 | > 100 | > 100 | > 100 | > 100 | > 100
c1ccc2c(Cc3c[nH]c4ccccc34)c[nH]c2c1 | > 100 | > 100 | 37.2 | 27.7 | 27.2 | 45.7 | 42.8 | > 100 | 35.3 | 
C#CCSc1cnc2ccccc2c1Sc1c[nH]c2ccccc2c1=O | 54.1 |  | > 100 | 5.99 | 44.8 | > 100 | > 100 | > 100 | > 100 | > 100
CC1=NN(C(=O)CC(=O)Nc2cccc(Cl)c2)C(=O)C1N=Nc1ccc(S(=O)(=O)c2ccc(N=NC3C(=O)N(C(=O)CC(=O)Nc4cccc(Cl)c4)N=C3C)cc2)cc1 (stereo unspecified) | > 100 |  | > 100 | > 100 | > 100 | > 100 | > 100 | > 100 | > 100 | 55.6
CCCN(CCC)C(=O)Cc1c2n(c3ccccc13)Cc1ccccc1-2 | > 100 |  | > 100 | > 100 | > 100 | > 100 | > 100 | > 100 | > 100 | > 100
N#Cc1nc(Cc2ccccc2)oc1N |  |  | > 100 | > 100 | > 100 | > 100 |  | > 100 | > 100 | > 100
O=C(CN=C(CN(c1ccccc1)c1ccccc1)Oc1c([N+](=O)[O-])cc([N+](=O)[O-])cc1[N+](=O)[O-])N1CCNCC1 | > 100 |  | > 100 |  | > 100 | > 100 | > 100 | > 100 | > 100 | > 100
CCOC(=O)c1cc2cc(CSc3ccccc3)ccc2oc1=O | > 100 |  | > 100 | > 100 | > 100 | > 100 | > 100 | > 100 | > 100 | > 100
